Test results: patent US20120231482A1, “METHOD, KIT OR DIAGNOSTIC FOR THE DETECTION OF REAGENTS WHICH INDUCE ALTERED CONTRACTILITY” (THE JOHNS HOPKINS UNIVERSITY, priority 2009, published 2012)
Marks after values point to notes of the source that are not given here.

Assays:
skinned trabeculae = test: Force-[Ca2+] relation in skinned trabeculae; assay type: cell-based, rat; details: after skinning; NCA
Procedure: FIG. 2. […] (A) Steady-state force-[Ca^2+]i relationship in intact trabeculae before and after NCA (20 μmol/L). n=5. See text for details. (B) Force-[Ca^2+] relation in skinned trabeculae before and after NCA (n=6). […] The muscles were treated with DTT (5 mM) for 10 min after 1st force-[Ca^2+] was obtained in the presence of NCA alone, and a second force-[Ca^2+] relation was obtained in the presence of NCA+DTT. n=3. (D) For comparison, steady-state force-[Ca^2+]i relationship in intact trabeculae before and after AS (500 μmol/L). n=5.
To further test this hypothesis, steady-state force-[Ca^2+]i relations were obtained by tetanizing the muscles in the presence of ryanodine.

myosin heavy chain β = biological target: T1, myosin heavy chain β (Rattus norvegicus, UniProt P02564); test: Modified biotin switch assay, sites of HNO modification; assay type: biochemical
T1 construct: Rat myofibrillar preparations, as described in [7], were obtained from frozen ventricles (Pel Freez Biologicals); tissue Pel Freez Biologicals; host or cells: myofibrils from frozen rat ventricles
Procedure: (§1) Rat myofibrillar preparations, as described in [7], were obtained from frozen ventricles (Pel Freez Biologicals) minced in 20 volumes/tissue weight of 4° C. relax buffer (SRB (75 mM KCL, 10 mM imidazole pH 7.2, 2 mM MgCl2) plus 4 mM phosphocreatine, 1 mM ATP, 50 mM BDM, 1 mM benzamidine-HCL, 0.1 mM PMSF, 1 μg/ml leupeptin, 1 μg/ml pepstatin, 1% (v/v) Trixon X-100) and adjusted to 10 mM EDTA. Minced preparations were centrifuged for 8 min at 3000xg and the supernant was decanted. Resulting pellets were resuspended in 10 volumes of SRB plus 1% Triton X-100 and subjected to 6 strokes in a Duall tissue homogenizer and centrifuged as above. Pellets were gently resuspended and centrifuged as above twice more in SRB including 1% (v/v) Triton X-100, twice in SRB lacking Triton X-100 and once in K-60 buffer (60 mM KCL, 20 mM MOPS, 2 mM MgCl2 pH 7) before being resuspended in 5 volumes of K-60.
(§2) Detection of HNO modifications by Modified Biotin Switch. HNO modified thiols were detected using a modification to the standard biotin switch protocol. In brief, 100 μg of rat myofibrils/treatment were diluted to 0.5 μg/μl in HEN (250 mM HEPES pH 7.7, 1 mM EDTA and 0.1 mM neocuproine) including 0.1% (w/v) SDS and exposed to a treatment for 10 min at 37° C. which was subsequently removed by acetone precipitation. Remaining free thiols were blocked by addition of 300 μl of HEN including 2.5% (w/v) SDS and 20 mM N-ethylmaleimide (NEM), incubated for 20 min at 50° C. Excess NEM was removed by acetone precipitation. HNO and/or NO modified thiols were reduced using 5 mM DTT or 1 mM ascorbate in 150 μl of HEN including 1% (w/v) SDS and biotinylated with 0.8 mM Biotin-HPDP (Pierce) for one hour at room temperature. Excess biotin-HPDP was removed by acetone precipitation (2 volumes) and resultant pellets were carefully washed with an additional volume of acetone. Biotinylated proteins were resuspended in 1 ml of HEN including 0.1% (w/v) SDS and captured by incubation with 15 μl of washed, packed Ultralink Immobilized Streptavidin (Pierce) for one hour at room temperature. Beads were washed four times in 50 bead volumes of HEN (twice including 0.1% (w/v) SDS, twice including 600 mM NaCl) and twice with EB (20 mM HEPES pH 7.7, 100 mM NaCl, 1 mM EDTA). Captured proteins were eluted with 40 μl of EB containing 100 mM DTT, mixed with 15 μl of 4×LDS sample buffer, boiled, separated by SDS PAGE and silver stained. For MS studies, biotinylated proteins were digested overnight with trypsin (Promega) prior to capture and washed ten additional times with 5 mM ammonium bicarbonate/20% acetonitrile before being eluted in 100 μl of wash buffer including 100 mM DTT as described. Captured peptides were identified using a LTQ linear ion trap tandem mass spectrometer (ThermoFinnigan, Waltham Mass. USA) with data searched against the rat IPI primary sequence database using the sorcerer searching platform (sagen).
(§3) To investigate the modifications that underlie the difference seen in the functional effect of these two compounds we performed an analysis on the myofilament proteins, using a modified biotin-switch method, followed by mass spectrometry for identification (FIG. 3). Following treatment with HNO or control compounds, unmodified cysteines are blocked with NEM before treatment with a reducing agent and labeling the exposed cysteines with a biotin group (FIG. 3A). In this case, 5 mM DTT was used as the reducing agent because it was shown in the physiological studies to reverse the effect of the treatment. […] Tryptic or chymotryptic peptides containing the modified cysteine residues were captured and identified by LC/MS/MS. […] To parse the role of candidate sites of modification between these two effects a comparative proteomics experiment was designed where modifications specific to NCA treatment would be considered candidates for the Ca^2+ effect while sites identified in common between AS and NCA could be candidates for the force effect (FIG. 3C). […]

tropomyosin (α) = biological target: T2, tropomyosin (α) (Rattus norvegicus, UniProt P04692); test: as above; assay type: biochemical
T2 construct: Rat myofibrillar preparations, as described in [7], were obtained from frozen ventricles (Pel Freez Biologicals); tissue Pel Freez Biologicals; host or cells: myofibrils from frozen rat ventricles
Procedure: as §1, §2, §3

T2 sequence (P04692 whole entry): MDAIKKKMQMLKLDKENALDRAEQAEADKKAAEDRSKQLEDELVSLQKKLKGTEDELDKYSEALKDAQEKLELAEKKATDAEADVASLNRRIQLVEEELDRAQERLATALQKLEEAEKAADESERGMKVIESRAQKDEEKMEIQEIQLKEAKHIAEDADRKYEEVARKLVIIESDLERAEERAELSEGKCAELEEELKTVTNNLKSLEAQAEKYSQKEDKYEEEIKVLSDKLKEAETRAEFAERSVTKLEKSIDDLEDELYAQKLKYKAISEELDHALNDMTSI
T1 sequence (P02564 whole entry): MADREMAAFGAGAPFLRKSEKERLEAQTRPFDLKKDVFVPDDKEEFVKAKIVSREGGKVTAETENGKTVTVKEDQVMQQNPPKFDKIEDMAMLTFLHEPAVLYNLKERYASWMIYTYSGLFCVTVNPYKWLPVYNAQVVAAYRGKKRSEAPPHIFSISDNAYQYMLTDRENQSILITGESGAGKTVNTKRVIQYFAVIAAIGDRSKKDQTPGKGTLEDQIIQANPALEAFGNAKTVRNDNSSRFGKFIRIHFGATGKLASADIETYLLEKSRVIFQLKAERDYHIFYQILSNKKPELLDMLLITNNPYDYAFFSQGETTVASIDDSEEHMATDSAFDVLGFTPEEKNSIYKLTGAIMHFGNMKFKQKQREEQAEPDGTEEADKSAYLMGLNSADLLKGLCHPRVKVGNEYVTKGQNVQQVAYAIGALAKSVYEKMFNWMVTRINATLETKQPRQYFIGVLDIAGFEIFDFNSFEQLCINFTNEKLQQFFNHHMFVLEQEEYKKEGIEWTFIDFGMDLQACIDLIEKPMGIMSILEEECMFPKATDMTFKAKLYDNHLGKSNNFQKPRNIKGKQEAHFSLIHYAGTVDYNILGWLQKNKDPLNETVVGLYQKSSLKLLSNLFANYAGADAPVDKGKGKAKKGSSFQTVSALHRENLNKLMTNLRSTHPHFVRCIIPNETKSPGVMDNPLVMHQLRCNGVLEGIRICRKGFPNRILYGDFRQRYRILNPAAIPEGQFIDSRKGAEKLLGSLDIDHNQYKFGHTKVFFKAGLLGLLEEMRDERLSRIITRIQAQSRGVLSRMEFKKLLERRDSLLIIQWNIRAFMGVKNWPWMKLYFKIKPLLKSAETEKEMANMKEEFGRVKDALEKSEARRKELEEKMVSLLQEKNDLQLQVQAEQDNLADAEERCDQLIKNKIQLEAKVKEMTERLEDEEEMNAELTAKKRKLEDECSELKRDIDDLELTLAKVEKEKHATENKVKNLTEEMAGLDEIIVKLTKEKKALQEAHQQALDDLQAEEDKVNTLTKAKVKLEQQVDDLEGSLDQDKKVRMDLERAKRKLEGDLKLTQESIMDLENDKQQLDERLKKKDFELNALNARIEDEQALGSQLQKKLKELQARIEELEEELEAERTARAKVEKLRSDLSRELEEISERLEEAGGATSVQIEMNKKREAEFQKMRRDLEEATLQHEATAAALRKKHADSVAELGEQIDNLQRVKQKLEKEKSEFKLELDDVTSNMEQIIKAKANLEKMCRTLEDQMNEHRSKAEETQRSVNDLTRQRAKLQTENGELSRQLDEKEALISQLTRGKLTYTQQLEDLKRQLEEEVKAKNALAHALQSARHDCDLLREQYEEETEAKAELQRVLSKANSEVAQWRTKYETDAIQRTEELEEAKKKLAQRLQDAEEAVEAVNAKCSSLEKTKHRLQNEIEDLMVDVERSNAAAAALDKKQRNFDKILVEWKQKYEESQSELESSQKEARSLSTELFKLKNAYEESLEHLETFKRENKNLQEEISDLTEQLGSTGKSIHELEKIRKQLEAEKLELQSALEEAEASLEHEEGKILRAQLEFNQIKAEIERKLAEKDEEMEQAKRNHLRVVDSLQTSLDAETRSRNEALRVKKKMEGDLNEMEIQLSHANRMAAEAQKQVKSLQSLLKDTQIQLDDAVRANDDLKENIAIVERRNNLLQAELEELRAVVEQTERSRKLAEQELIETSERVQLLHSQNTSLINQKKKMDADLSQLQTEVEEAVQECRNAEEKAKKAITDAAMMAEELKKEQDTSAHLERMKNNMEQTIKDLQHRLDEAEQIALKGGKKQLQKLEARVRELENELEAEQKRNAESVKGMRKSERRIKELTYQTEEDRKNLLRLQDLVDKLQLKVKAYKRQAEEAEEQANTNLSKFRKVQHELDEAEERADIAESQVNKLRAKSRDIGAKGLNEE

CC(=O)OC1(N=O)CCCCC1 [NCA, 1-nitrosocyclohexylacetate]
Hill (skinned trabeculae): 2.39±1.02 | number of independent observations of peptide (myosin heavy chain β; Cys 947, tryptic peptide KLEDECELKR, 25 μM NCA or 500 μM AS): 3 | Position of modified Cys (myosin heavy chain β; myosin heavy chain (β), Table 2): 947(β)* | number of independent observations of peptide (tropomyosin (α); Cys 190, tryptic peptide CLELEEELKTVTNNLK, 25 μM NCA or 500 μM AS): 3^a | Position of modified Cys (tropomyosin (α); α-tropomyosin, Table 2): 190
